{"source": "ChEMBL document CHEMBL1201862", "about": "“PubChem BioAssay data set” (2004)", "key": {"[1]": {"biological_target": "T1, Heat shock factor protein 1 (Mus musculus, UniProt P38532)", "T1 sequence (P38532 whole entry)": "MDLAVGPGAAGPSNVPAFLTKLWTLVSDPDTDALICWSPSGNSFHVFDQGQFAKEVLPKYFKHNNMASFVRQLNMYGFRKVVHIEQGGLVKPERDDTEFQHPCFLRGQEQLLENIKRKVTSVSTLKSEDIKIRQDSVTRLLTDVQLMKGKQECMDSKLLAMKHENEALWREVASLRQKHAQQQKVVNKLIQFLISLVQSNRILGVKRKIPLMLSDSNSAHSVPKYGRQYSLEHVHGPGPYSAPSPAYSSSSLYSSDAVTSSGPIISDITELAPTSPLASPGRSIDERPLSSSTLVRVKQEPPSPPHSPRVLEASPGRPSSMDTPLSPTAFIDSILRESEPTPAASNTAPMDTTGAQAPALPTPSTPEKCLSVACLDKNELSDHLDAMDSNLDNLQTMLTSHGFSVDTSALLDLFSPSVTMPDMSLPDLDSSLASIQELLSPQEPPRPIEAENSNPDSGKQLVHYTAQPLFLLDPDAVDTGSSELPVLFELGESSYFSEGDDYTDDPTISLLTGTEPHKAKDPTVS", "assay": "inhibition of MG132-induced HSE-luciferase signal, confirmation, cell-based, NIH3T3, luminescence, dose retest (AID 2382);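 further: NIH3T3 fibroblasts with HSF1-driven luciferase reporter stressed by proteasome inhibitor MG132; luminescence from HSF1-driven luciferase expression after 8 hours of MG132 stress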", "type": "functional"}, "[2]": {"biological_target": "T2, Cytochrome P450 1A2 (Homo sapiens, UniProt P05177)", "T2 sequence (P05177 whole entry)": "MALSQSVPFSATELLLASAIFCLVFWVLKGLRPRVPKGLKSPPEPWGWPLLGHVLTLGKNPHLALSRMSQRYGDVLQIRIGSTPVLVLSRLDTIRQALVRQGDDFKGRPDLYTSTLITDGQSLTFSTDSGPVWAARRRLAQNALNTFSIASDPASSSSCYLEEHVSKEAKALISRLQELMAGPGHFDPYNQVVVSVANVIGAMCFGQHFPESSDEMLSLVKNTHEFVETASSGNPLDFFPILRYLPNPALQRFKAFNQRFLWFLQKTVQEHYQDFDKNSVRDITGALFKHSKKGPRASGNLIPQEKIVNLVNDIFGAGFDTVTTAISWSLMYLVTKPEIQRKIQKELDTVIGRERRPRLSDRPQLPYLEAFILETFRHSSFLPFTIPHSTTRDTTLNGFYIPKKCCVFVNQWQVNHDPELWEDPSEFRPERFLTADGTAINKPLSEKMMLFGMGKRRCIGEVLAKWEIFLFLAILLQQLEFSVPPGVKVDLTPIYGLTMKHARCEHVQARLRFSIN"}, "[3]": {"test_system": "Streptococcus", "assay": "Group A Streptococcus viability loss, dose response, counter-screen for streptokinase expression inhibitor project, luminescence, BacTiterGlo (AID 1915);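 further: potency for reduction of bacterial viability or growth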", "type": "functional, organism-based"}, "[4]": {"biological_target": "T3, Streptokinase A (Streptococcus pyogenes serotype M1, UniProt P10520)", "T3 sequence (P10520 whole entry)": "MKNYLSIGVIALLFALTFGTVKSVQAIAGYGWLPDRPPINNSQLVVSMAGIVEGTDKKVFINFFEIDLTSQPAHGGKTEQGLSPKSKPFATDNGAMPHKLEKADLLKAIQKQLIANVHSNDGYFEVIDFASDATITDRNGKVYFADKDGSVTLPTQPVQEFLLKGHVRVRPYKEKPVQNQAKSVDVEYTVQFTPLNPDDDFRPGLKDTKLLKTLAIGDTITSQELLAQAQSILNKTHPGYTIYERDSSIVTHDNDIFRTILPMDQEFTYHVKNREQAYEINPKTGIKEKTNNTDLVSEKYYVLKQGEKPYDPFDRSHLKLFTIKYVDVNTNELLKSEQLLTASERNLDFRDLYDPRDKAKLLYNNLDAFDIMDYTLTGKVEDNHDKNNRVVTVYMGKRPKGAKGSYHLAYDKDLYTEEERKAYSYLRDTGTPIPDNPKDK", "assay": "S. pyogenes streptokinase expression inhibitors, potency, dose response, plasminogen activation absorbance, OD405 (AID 1914);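 further: secreted streptokinase activity via plasminogen activation per viability signal from cell pellet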", "type": "functional, Streptococcus pyogenes M1 GAS"}, "[5]": {"test_system": "Streptococcus sp. 'group A'", "assay": "growth inhibition of control SK(-) GAS strain, dose response, counter-screen for streptokinase expression inhibitor project, luminescence, kanamycin, BacTiterGlo, confirmation (AID 1900)", "type": "functional, organism-based"}, "[6]": {"biological_target": "Cytochrome P450 2D6 (Homo sapiens, UniProt P10635)", "sequence (P10635 whole entry)": "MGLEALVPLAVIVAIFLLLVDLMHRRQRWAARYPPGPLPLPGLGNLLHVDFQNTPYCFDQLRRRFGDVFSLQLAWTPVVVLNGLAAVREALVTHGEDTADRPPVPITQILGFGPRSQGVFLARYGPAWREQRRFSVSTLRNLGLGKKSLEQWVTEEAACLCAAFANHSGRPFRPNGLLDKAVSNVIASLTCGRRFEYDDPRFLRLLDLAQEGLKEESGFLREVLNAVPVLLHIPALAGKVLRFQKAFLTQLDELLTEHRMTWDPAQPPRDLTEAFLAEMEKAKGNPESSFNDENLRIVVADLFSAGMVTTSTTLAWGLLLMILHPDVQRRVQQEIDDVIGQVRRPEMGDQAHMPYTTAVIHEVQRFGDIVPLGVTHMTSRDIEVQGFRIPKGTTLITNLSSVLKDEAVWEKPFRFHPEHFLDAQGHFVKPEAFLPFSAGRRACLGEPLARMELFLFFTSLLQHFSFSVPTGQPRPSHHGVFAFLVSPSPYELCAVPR"}, "[7]": {"biological_target": "Cytochrome P450 2C19 (Homo sapiens, UniProt P33261)", "sequence (P33261 whole entry)": "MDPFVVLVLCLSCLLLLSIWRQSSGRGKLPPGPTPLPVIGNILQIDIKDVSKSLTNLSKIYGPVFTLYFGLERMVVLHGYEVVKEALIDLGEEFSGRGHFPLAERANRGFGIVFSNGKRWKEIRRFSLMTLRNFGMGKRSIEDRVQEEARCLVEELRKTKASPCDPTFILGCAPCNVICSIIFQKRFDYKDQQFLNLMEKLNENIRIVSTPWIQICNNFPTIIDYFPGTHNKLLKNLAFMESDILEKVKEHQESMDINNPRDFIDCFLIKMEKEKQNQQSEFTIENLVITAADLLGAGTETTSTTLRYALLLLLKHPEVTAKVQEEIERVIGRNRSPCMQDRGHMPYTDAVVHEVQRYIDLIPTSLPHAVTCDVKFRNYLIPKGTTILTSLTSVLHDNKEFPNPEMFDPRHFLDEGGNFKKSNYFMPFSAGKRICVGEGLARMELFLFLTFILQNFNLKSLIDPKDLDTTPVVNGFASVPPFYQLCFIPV", "assay": "Cytochrome panel assay with activity outcomes. Panel member name: p450-cyp2c19 Compounds with AC50 equal or less than 10 uM are considered active", "type": "functional"}, "[8]": {"test_system": "INS1", "assay": "beta cell apoptosis inhibitors, cytokine rescue, dose response, luminescence, retest (AID 449756);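 further: cell death triggered by IL-1 beta plus TNF-alpha plus IFN-gamma mixture; protective hits raise ATP signal compared with cytokine alone wells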", "type": "functional, cell-based", "settings": "Rattus norvegicus"}, "[9]": {"assay": "Luminescence Cell-Based Dose Retest to Confirm Inhibitors of Cancer Stem Cells. [Related pubchem assays (depositor defined):AID2717, AID2721]", "type": "functional", "settings": "Homo sapiens"}, "[10]": {"biological_target": "T4, Corticotropin-releasing factor receptor 2/Corticotropin-releasing factor-binding protein (Homo sapiens, UniProt P24387+Q13324)", "T4 sequence (Q13324 whole entry)": "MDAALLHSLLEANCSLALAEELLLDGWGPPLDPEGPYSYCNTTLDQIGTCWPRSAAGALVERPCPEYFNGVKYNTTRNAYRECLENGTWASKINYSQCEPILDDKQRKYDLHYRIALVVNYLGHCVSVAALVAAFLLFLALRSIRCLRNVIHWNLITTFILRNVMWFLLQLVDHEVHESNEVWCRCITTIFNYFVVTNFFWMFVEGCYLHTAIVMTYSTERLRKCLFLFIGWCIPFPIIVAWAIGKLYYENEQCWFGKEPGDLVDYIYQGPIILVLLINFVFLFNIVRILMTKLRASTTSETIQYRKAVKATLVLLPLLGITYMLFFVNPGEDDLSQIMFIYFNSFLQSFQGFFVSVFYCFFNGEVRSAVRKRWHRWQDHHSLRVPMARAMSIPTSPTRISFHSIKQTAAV", "T4 sequence (P24387 whole entry)": "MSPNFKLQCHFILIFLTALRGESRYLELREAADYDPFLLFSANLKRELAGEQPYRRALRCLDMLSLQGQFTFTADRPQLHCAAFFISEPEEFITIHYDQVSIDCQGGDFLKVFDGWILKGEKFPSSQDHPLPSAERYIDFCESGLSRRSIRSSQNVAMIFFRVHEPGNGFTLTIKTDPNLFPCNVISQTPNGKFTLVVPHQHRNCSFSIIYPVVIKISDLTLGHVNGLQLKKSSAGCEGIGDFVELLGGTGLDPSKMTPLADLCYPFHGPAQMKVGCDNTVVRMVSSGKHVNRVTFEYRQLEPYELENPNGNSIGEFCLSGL", "assay": "activators of CRF receptor 2 with binding protein – uHTS hits, confirmation (AID 602473)", "type": "functional", "settings": "read-out: EC50_Mean"}, "[11]": {"biological_target": "Cytochrome P450 2C9 (Homo sapiens, UniProt P11712)", "sequence (P11712 whole entry)": "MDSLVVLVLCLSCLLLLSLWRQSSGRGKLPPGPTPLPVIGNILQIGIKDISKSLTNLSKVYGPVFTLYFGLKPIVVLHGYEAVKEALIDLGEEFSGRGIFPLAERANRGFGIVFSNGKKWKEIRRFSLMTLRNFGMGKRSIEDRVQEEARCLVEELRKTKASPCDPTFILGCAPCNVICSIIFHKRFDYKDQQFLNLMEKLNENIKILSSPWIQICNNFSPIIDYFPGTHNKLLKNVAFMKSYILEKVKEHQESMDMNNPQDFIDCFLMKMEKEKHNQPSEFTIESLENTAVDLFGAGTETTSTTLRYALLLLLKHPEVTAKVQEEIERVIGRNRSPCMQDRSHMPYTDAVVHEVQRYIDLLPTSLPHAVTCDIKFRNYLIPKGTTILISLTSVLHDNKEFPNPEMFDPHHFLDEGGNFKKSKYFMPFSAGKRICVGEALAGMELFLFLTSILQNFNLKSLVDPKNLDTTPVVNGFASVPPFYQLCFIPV"}}, "note": "Activity calls are given as the source filed them.", "data": [{"smiles": "C(#Cc1ccccc1)CN1CCN(c2ccccn2)CC1", "values": [{"measurement": "EC50", "setting": "[1]", "result": "> 195 µM (not active)"}]}, {"smiles": "COc1cc(C(=O)N2CCSCC2)ccc1OC1CCN(C(C)=O)CC1", "values": [{"measurement": "EC50", "setting": "[1]", "result": "> 195 µM (not active)"}]}, {"smiles": "CCOC(=O)c1c(C)nc2c(c1-c1ccc(OC)cc1)C(=O)CC(C)(C)C2", "values": [{"measurement": "AC50", "setting": "[2]", "result": "14.1 µM (inconclusive)"}]}, {"smiles": "Cc1ccc(OP(=O)(Nc2cccc(C)c2)Oc2ccc(C)cc2)cc1", "values": [{"measurement": "EC50", "setting": "[3]", "result": "28.9 µM (active)"}, {"measurement": "EC50", "setting": "[4]", "result": "5.1 µM (active)"}, {"measurement": "EC50", "setting": "[5]", "result": "13 µM (active)"}]}, {"smiles": "CC1CCOC2(O1)C(=O)N(CN1CCN(c3ccccc3F)CC1)c1ccccc12", "note": "(configuration not stated)", "values": [{"measurement": "AC50", "setting": "[6]", "result": "25.1 µM (inconclusive)"}, {"measurement": "AC50", "setting": "[7]; read-out: AC50", "result": "11.2 µM (inconclusive)"}, {"measurement": "AC50", "setting": "[2]", "result": "2 µM (inconclusive)"}]}, {"smiles": "CCc1ccc(NC(=O)C2C3CCC(O3)C2C(=O)O)cc1", "note": "(configuration not stated)", "values": [{"measurement": "EC50", "setting": "[1]", "result": "67 µM (active)"}]}, {"smiles": "CCN(c1ccccc1)S(=O)(=O)c1ccc(Cl)c(NC(=O)CSc2nnc(C)s2)c1", "values": [{"measurement": "EC50", "setting": "[1]", "result": "> 195 µM (not active)"}]}, {"smiles": "CC1(C)NC(=O)N(CC(O)CN(c2ccccc2)S(=O)(=O)c2ccc([N+](=O)[O-])cc2)C1=O", "note": "(configuration not stated)", "values": [{"measurement": "EC50", "setting": "[1]", "result": "> 195 µM (not active)"}]}, {"smiles": "O=C(c1ccco1)N1CCC2(CCN(Cc3ccncc3)CC2)CC1", "values": [{"measurement": "AC50", "setting": "[6]", "result": "10 µM (inconclusive)"}, {"measurement": "AC50", "setting": "[2]", "result": "20 µM (inconclusive)"}]}, {"smiles": "COc1ccc(OC)c(C2N(c3cc(C)on3)C(=O)C3CCCN32)c1", "note": "(configuration not stated)", "values": [{"measurement": "AC50", "setting": "[7]", "result": "inconclusive"}, {"measurement": "AC50", "setting": "[2]", "result": "25.1 µM (inconclusive)"}]}, {"smiles": "COc1ccc2c(C(=O)NCc3ccc4c(c3)OCO4)c(-c3ccc(S(C)(=O)=O)cc3)sc2c1", "values": [{"measurement": "AC50", "setting": "[8]", "result": "6.76 µM (active)"}]}, {"smiles": "CC(C)(C)OC(=O)NCc1ccc(NC(=O)c2[nH]cnc2C(=O)NCCCCNC(=O)c2nc[nH]c2C(=O)Nc2ccc(CNC(=O)OC(C)(C)C)cc2)cc1", "values": [{"measurement": "AC50", "setting": "[9]", "result": "1.73 µM (active)"}, {"measurement": "AC50", "setting": "[8]", "result": "3.36 µM (active)"}]}, {"smiles": "CN(C)c1ccc(C=C2SC(=S)NC2=O)cc1", "values": [{"measurement": "EC50", "setting": "[10]", "result": "4.78 µM (active)"}]}, {"smiles": "CCOC(=O)C1=C(COc2ccc(F)cc2Cl)NC(=O)NC1c1cc(C)ccc1C", "note": "(configuration not stated)", "values": [{"measurement": "AC50", "setting": "[2]", "result": "17.8 µM (inconclusive)"}]}, {"smiles": "N[C@H](Cc1ccccc1)c1nnn[nH]1", "values": [{"measurement": "AC50", "setting": "[2]", "result": "10 µM (inconclusive)"}]}, {"smiles": "Cc1ccc(S(=O)(=O)c2cc3ccccc3o/c2=N\\c2ccc3c(c2)OCO3)cc1", "values": [{"measurement": "AC50", "setting": "[11]", "result": "3.55 µM (inconclusive)"}, {"measurement": "AC50", "setting": "[6]", "result": "7.94 µM (inconclusive)"}, {"measurement": "AC50", "setting": "[2]", "result": "2.82 µM (inconclusive)"}]}, {"smiles": "CCn1c(C(C#N)/C(=N\\S(=O)(=O)c2cccs2)c2ccccc2)nc2ccccc21", "note": "(configuration not stated)", "values": [{"measurement": "EC50", "setting": "[1]", "result": "> 195 µM (not active)"}]}, {"smiles": "C/C(CC(=O)Nc1ccccc1C(F)(F)F)=N\\NC(=O)c1cnccn1", "values": [{"measurement": "EC50", "setting": "[1]", "result": "> 195 µM (not active)"}]}, {"smiles": "COc1ccc(CN2C(=O)c3ccccc3C(/C=N/OCc3ccc(Cl)cc3)C2=O)cc1", "note": "(configuration not stated)", "values": [{"measurement": "EC50", "setting": "[3]", "result": "8.28 µM (active)"}, {"measurement": "EC50", "setting": "[4]", "result": "> 150 µM (not active)"}, {"measurement": "EC50", "setting": "[5]", "result": "1.44 µM (active)"}]}, {"smiles": "C/C(=N\\O)C1CCCCC1", "values": [{"measurement": "EC50", "setting": "[1]", "result": "> 195 µM (not active)"}]}, {"smiles": "NC1(C(=O)O)CCC1", "note": "[1-AMINOCYCLOBUTANE CARBOXYLIC ACID]", "values": [{"measurement": "AC50", "setting": "[2]", "result": "39.8 µM (inconclusive)"}]}]}
